Columns and labels:
[1] = system: Ptch1 and Gli1 expression in C3H/10T1/2 cells; experiment: RT-qPCR of Hh target genes; format: cell-based, mouse; settings: 1.5 μM purmorphamine, 96 h
Procedure: three times with PBS and mounted on glass slides using Aqua Polymount (Polysciences Inc).
Images were acquired as Z-sections with Leica SP5 confocal microscope using a 63x 1.40 NA
Oil objective (Leica Microsystems CMS GmbH, Mannheim, Germany). Image analysis was
performed using the software ImageJ. Briefly, Z-stacks were converted to intensity sum
projections, after previous background subtraction. For quantification, cilia were identified and
marked based on the acetylated-tubulin staining intensities and the intensities of the anti-
Smoothened antibody were measured within these areas. Results were visualized and
significances were assessed using an unpaired t-test (confidence interval of 95%) with the
software GraphPad Prism 7, GraphPad software, USA). Three independent biological
replicates were performed and for each replicate at least 100 cilia per condition were analyzed.
Reverse transcription- quantitative PCR (RT-qPCR)
C3H10T1/2 cells were seeded (1×10^5 per well) in 6-well plates. 48 h later cells were treated […]
DNase I digestion step. The concentration of purified RNA was determined by means of the […]
QuantiTect Reverse Transcription Kit (Qiagen) according to the manufacturer’s protocol. […]
determined by means of quantitative RT-PCR using the QuantiFast SYBR Green PCR Kit […]
genes. The expression levels of Ptch1 and Gli1 were determined using the 2−ΔΔCt method.[6] […]

SMO = target: T1, SMO (Mus musculus, UniProt P56726); experiment: SMO binding assay (BODIPY-cyclopamine displacement); format: cell-based; settings: HEK293T cells expressing SMO, 5 nM BODIPY-cyclopamine
T1 construct: expressed in transfected cells; host or cells: HEK293T
Procedure: Supplementary Figure S2. […] HEK293T cells […]
ectopically expressing SMO were treated with different concentrations of 7a or Vismodegib and DMSO as controls in the presence of BODIPY-cyclopamine (5 nM) for 5 h. The graph […]
activated cell sorting analysis. Data are mean values of three independent experiments (n=3) ± […]
using a three-fold dilution series starting from a concentration of 30 μM. Half-maximal inhibitory concentrations (IC50) were calculated using the Quattro software suite (Quattro Research, Planegg, Germany) or GraphPad Prism 7 (GraphPad, USA).
The effect of test compounds on the viability of C3H/10T1/2 cells was determined by CellTiter-Glo Luminescence cell viability assay (Promega). Cells were treated as described for the osteogenesis assay prior to addition of the CellTiter-Glo® reagent according to manufacturer’s protocol. Compounds causing at least a 50% reduction in the osteogenesis assay and retaining cell viability of at least 80% were considered as hits. Dose-response analyses were performed for all hit compounds using a three-fold dilution series starting from a concentration of 30 μM. Half-maximal inhibitory concentrations (IC50) were calculated using the Quattro software suite (Quattro Research GmbH).
GLI-dependent reporter gene assay
Shh-LIGHT2 cells were seeded (2.5×10^4 per well) in 96-well plates. After incubation for 16 h, medium was replaced by low serum-containing medium (0.5% FCS) supplemented with 1.5 μM purmorphamine and various concentrations of the compounds or DMSO as a control and cells were incubated for 48 h. Firefly and Renilla luciferase activities were determined by means of the Dual-Luciferase® Reporter Assay System (Promega) according to the manufacturer’s protocol and luminescence was measured using the Spark plate reader (Tecan, […]
HEK293T cells were seeded (1.5×10^4 per well) on poly-D-lysine-coated coverslips placed in a 24-well plate. 24 h later cells were transfected with the SMO-expressing plasmid (pGEN-mSMO) using FuGENE HD (Promega) according to the manufacturer’s protocol. […]

T1 sequence (P56726 33-793): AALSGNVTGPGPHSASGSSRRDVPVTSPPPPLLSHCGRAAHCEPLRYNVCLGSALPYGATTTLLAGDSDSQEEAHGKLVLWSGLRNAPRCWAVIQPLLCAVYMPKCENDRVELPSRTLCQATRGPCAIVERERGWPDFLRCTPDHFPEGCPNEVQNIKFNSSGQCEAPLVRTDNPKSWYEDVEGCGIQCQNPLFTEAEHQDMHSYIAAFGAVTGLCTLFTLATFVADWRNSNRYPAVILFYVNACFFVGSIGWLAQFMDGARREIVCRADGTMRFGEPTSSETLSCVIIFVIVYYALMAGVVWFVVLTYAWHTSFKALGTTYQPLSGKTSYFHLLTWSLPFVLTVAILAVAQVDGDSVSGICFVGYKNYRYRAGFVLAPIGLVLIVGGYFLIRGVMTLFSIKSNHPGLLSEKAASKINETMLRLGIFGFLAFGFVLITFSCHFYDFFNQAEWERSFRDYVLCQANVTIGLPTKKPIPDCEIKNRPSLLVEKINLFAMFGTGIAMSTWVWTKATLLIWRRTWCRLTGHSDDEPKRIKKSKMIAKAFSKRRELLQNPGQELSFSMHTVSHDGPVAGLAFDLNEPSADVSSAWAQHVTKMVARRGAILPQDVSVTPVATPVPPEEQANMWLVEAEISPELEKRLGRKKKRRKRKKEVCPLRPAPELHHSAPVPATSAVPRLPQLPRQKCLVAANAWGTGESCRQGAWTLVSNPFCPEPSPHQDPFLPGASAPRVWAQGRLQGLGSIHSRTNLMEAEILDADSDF

SMILES	Expression of the Hh target genes Ptch1 and Gli1 (remaining) ([1]; 5 μM, purmorphamine-treated cells = 100 %)	Displacement of BODIPY-cyclopamine from SMO (in words) (SMO)	Displacement of BODIPY-cyclopamine from SMO (in words) (SMO; listed as 7 a)	Expression of the Hh target genes Ptch1 and Gli1 (in words) [1]
COC(=O)C1(C(CC(=O)c2ccccc2)c2ccccc2)N=C(c2ccc(Br)cc2)C2C(=O)N(C)C(=O)C21 (centres unmarked) [7a]	approx. 50%	does not displace	did not displace	
COC(=O)C1(C(CC(=O)c2cccnc2)c2ccccc2)N=C(c2ccc(Br)cc2)C2C(=O)N(C)C(=O)C21 (centres unmarked) [7l]		partial decrease		only slightly reduced

— article PMC9313812, “The Pseudo‐Natural Product Rhonin Targets RHOGDI” (Angewandte Chemie (International Ed. in English), 2022)
